# In patent US9055744B2 (priority 2008, dated 2015):
# B1: NmDef-Plus: antipathogenic protein fused to the signal peptide of the Saccharomyces cerevisiae alpha factor, expressed in Pichia pastoris (protein)
# chain: APVNTTTEDETAQIPAEAVIGYSDLEGDFDVAVLPFSNSTNNGLLFINTTIASIAAKEEGVSRECKAQGRHTTCFRDANCVQVCEKQAGWSHGDCRAQFKCKCIFEC
# Key:
# [1] = test system: Xanthomonas campestris p.v. phaseoli; assay: Effect of the antipathogenic protein on bacterial pathogens (growth inhibition); assay type: cell-based; settings: concentration where the bacteria growth is inhibit in a 50%; ± standard deviation
# Phytophthora infestans = assay type: cell-based; settings: different concentrations
# [2] = test system: Erwinia carotovorum p.v. carotovora; assay: Effect of the antipathogenic protein on bacterial pathogens (growth inhibition); assay type: cell-based; settings: concentration where the bacteria growth is inhibit in a 50%; ± standard deviation
# [3] = test system: Erwinia chrysanthemi p.v. zea; assay: as above; assay type: cell-based; settings: concentration where the bacteria growth is inhibit in a 50%; ± standard deviation
# Pseudomonas avenae = assay: as above; assay type: cell-based; settings: concentration where the bacteria growth is inhibit in a 50%; ± standard deviation
# [4] = test system: Pseudomonas syringae p.v. syringae; assay: as above; assay type: cell-based; settings: concentration where the bacteria growth is inhibit in a 50%; ± standard deviation
# Cándida albicans = settings: cited from earlier work
# several plant pathogens = assay type: cell-based
molecule,measurement,setting,value
NmDef-02: new anti-pathogenic small cysteine rich protein isolated from Nicotiana megalosiphon; also chemically synthesized without the signal peptide (RECKAQGRHTTCFRDANCVQVCEKQAGWSHGDCRAQFKCKCIFEC; Nicotiana megalosiphon),IC50,[1],40 ± 3 µM
same,inhibition of the growth of P. infestans,Phytophthora infestans; FIG. 4B,high levels of inhibition growth
same,IC50,[2],86 ± 8 µM
same,IC50,[3],11 ± 8 µM
same,IC50,Pseudomonas avenae,17 ± 5 µM
same,IC50,[4],26 ± 6 µM
"Rs-AFP2: plant anti-pathogenic protein from the literature (QKLCQRPSGTWSGVCGNNNACKNQCIRLEKARHGSCNYVFPAHKCICYFPC; UniProt P30230 30-80, looked up)",activity against Cándida albicans,Cándida albicans,active in micromolar concentrations
SEQ ID No. 9: fragment of the antipathogenic protein NmDef-02 obtained by chemical synthesis (QAGWSHGDCRAQFKCKCIFEC; Nicotiana megalosiphon),effect of fragments on the pathogen P. infestans,Phytophthora infestans; FIG. 6,control or inhibition of pathogen
B1,inhibition of the growth of plant pathogens,several plant pathogens,high levels of inhibition growth
